Data set [1] concerns SARS-CoV-2 live virus (B.1 lineage), Vero E6 cells. The data set is classed as cell-based.
A short description of another data set: Cytocompatibility (CCK8). Type of data set: cell-based, human. The note with it: human, A549 cells, read-out: cytocompatibility, normalized to serum free media; for viability at 6 h, 10 µM: 0.01 mM peptide; for viability at 6 h, 100 µM: 0.1 mM peptide; for viability at 6 h, 1000 µM: 1 mM peptide. Here is the method: Cytocompatibility of the peptides was evaluated at 1, 0.1, and 0.01 mM with A549 cells (ATCC CCL-185) cultured in complete media consisting of 90% F-12K and 10% FBS. The A549 cells were utilized after their first passage and seeded at 10,000 cells/well in a 96-well plate for 24 hours. The conditions were prepared in serum-free A549 media and introduced into the wells for 6 hours, after which the condition media were aspirated, the wells were washed once with PBS, and 10 µL of CCK8 was added to 100 µL of PBS[32]. The plate was incubated for 1 hour and read on a Tecan M200 Infinite plate reader at an absorbance of 450 nm with a reference wavelength of 650 nm. The results were analyzed and normalized to the serum-free media control[28],[32],[76].

Data set [2] is described as follows: Ultracentrifugation pellet / solid-state NMR of assemblies. The data set is classed as physicochemical. The note with it: 10 mg/mL, 150,000 RCF, 30 minutes, 4 °C. As to the method:
To experimentally validate E1:ESBP3 peptide mixtures, solid-state NMR experiments were pursued. ^13C solid-state NMR measurements were conducted using cross-polarization magic angle spinning (^1H-^13C CPMAS) to evaluate sample structural order and structural differences between samples. The peptides were not isotopically enriched, so the ^13C signal was from the 1% natural abundance for ^13C.
After peptide dissolution at 10 mg/mL, the samples were concentrated by ultracentrifugation for 30 minutes in Bruker 3.22 mm NMR rotors at 4 °C and 150,000 RCF in Ultra-clear tubes of SW-41 Ti swinging bucket rotor fitted onto a Beckman Optima XPN-100 centrifuge. A 11.75 T magnet Bruker Avance III HD 500 spectrometer (500 MHz, ^1H NMR Larmor frequency) equipped with a room temperature 3.2 mm Bruker Low-E ^1H/^13C/^15N NMR probe was used for measurements. ^13C chemical shift referencing was conducted using adamantane referenced to tetramethylsilane. 1D ^13C cross-polarization magic angle spinning (CPMAS) spectra were collected using the standard Bruker cp pulse sequence. A 10 kHz magic angle spinning speed was used for all samples. The channels frequency for the optimization of the Hartmann-Hahn condition for ^1H and ^13C are 500.133 MHz and 125.771 MHz, respectively. A recycle delay time of 4 seconds (d1) and dwell time of 5 μs (DW) were used. Acquisition time was set to 10.24 ms. […]

Data set [3] concerns the molecule itself. Kind of data set: co-sedimentation + other: solid-state NMR (1H-13C CPMAS).

Like-named read-outs stand apart in the source and are kept apart here. Peptide text beside a SMILES is read from it.

For the molecule `CC(=O)N[C@@H](CCC(=O)O)C(=O)N[C@@H](CO)C(=O)N[C@@H](CC(C)C)C(=O)N[C@@H](CO)C(=O)N[C@@H](CC(C)C)C(=O)N[C@@H](CO)C(=O)N[C@@H](CC(C)C)C(=O)N[C@@H](CO)C(=O)N[C@@H](CC(C)C)C(=O)N[C@@H](CO)C(=O)N[C@@H](CC(C)C)C(=O)N[C@@H](CO)C(=O)N[C@@H](CC(C)C)C(=O)N[C@@H](CCC(=O)O)C(N)=O` [E1] (Ac-ESLSLSLSLSLSLE-NH2), the “Comparative, Average” value in data set [1] was 65.5306. For the same molecule, in data set [1], the “live virus plaque inhibition, in words” value is “no major differences”. Further, the viability at 6 h, 10 µM in the data set “Cytocompatibility (CCK8)” (replicate 1, CCK8, 6 h) was 117%; in “Cytocompatibility (CCK8)” (replicate 2, CCK8, 6 h) it was 122%. Further, the viability at 6 h, 100 µM in the data set “Cytocompatibility (CCK8)” (replicate 1, CCK8, 6 h) worked out at 111%; in the data set “Cytocompatibility (CCK8)” (replicate 2, CCK8, 6 h) it was 147%; in the data set “Cytocompatibility (CCK8)” (replicate 3, CCK8, 6 h), 117%. Also, the viability at 6 h, 1000 µM in “Cytocompatibility (CCK8)” (replicate 1, CCK8, 6 h exposure, absorbance 450 nm) turned out to be 169%; in the data set “Cytocompatibility (CCK8)” (replicate 2, CCK8, 6 h), 195%; in “Cytocompatibility (CCK8)” (replicate 3, CCK8, 6 h) it was 139%. Moreover, the “ultracentrifuge pellet (assembly into nanofibers)” value in data set [2] is listed as “centrifuge pellets”.

Ac-ESLSLSLSLSLSLE-NH2 (also called E-(SL)6-E; E-flanked SAP) [E1 self-assembling peptide (E-SLSLSLSLSLSL-E)]: the binding result in data set [3] is given as “binds”.

Values taken from article PMC10850501 (Nature Communications, 2024).
